In ChEMBL document CHEMBL4000229, “Structure-activity relationships of diverse xanthones against multidrug resistant human tumor cells” (Bioorg Med Chem Lett, 2017):

Tests used:
Format in all cases: functional, cell-based
[1] = test system: SMMC-7721; assay: Cytotoxicity against Taxol-resistant human SMMC7721 cells measured after 48 hrs by MTT assay; settings: SMMC-7721, 48 h
[2] = test system: A549; assay: Cytotoxicity against Taxol-resistant human A549 cells measured after 48 hrs by MTT assay; settings: A549, 48 h
[3] = test system: NCI/ADR-RES; assay: Cytotoxicity against human MCF7/ADR cells measured after 48 hrs by MTT assay

Structure (SMILES): COc1c(O)cc2oc3cccc(O)c3c(=O)c2c1O
- IC50 [1]: 43.8 µM
- IC50 [2]: > 200 µM
- IC50 [3]: > 200 µM

Structure (SMILES): COc1c(O)cc2oc3ccc(O)cc3c(=O)c2c1O
- IC50 [1]: 48.9 µM
- IC50 [2]: 167 µM
- IC50 [3]: > 200 µM

Structure (SMILES): COc1ccc2oc3ccc(O)c(OC)c3c(=O)c2c1
- IC50 [1]: 83.7 µM
- IC50 [2]: 35.2 µM
- IC50 [3]: 102 µM

Structure (SMILES): O=c1c2cc(O)ccc2oc2cccc(O)c12
- IC50 [1]: 60.4 µM
- IC50 [2]: > 200 µM
- IC50 [3]: > 200 µM

Structure (SMILES): COc1cc(O)c2c(=O)c3cc(O)ccc3oc2c1OC
- IC50 [1]: 63 µM
- IC50 [2]: 62.3 µM
- IC50 [3]: 57.3 µM

Structure (SMILES): COc1cc2c(=O)c3c(O)c(OC)c(O)cc3oc2cc1O
- IC50 [1]: 102 µM
- IC50 [2]: > 200 µM
- IC50 [3]: > 200 µM

Structure (SMILES): O=c1c2cc(O)ccc2oc2cc(O)cc(O)c12
- IC50 [1]: 38.5 µM
- IC50 [2]: 146 µM
- IC50 [3]: 193 µM

Structure (SMILES): COc1cc(OC)c2c(=O)c3c(O)cccc3oc2c1OC
- IC50 [1]: 50.9 µM
- IC50 [2]: 34.6 µM
- IC50 [3]: 59.1 µM

Structure (SMILES): COc1ccc2oc3ccc(O)cc3c(=O)c2c1OC
- IC50 [1]: 81.8 µM
- IC50 [2]: 178 µM
- IC50 [3]: 53.5 µM

Structure (SMILES): COc1ccc(O)c2c(=O)c3cc(O)ccc3oc12
- IC50 [1]: 15.1 µM
- IC50 [2]: 38.9 µM
- IC50 [3]: 185 µM

Structure (SMILES): COc1c(O)ccc2oc3ccc(O)cc3c(=O)c12
- IC50 [1]: 56.3 µM
- IC50 [2]: 37.1 µM
- IC50 [3]: 109 µM

Structure (SMILES): COc1cc(O)c2c(=O)c3cc(O)ccc3oc2c1
- IC50 [1]: 87.4 µM
- IC50 [2]: 104 µM
- IC50 [3]: 31.8 µM

Structure (SMILES): COc1c(O)cc(OC)c2c(=O)c3c(O)cccc3oc12
- IC50 [1]: 14.7 µM
- IC50 [2]: 25.6 µM
- IC50 [3]: 30.4 µM
